Data: ChEMBL document CHEMBL1201861, “Genomics of Drug Sensitity in Cancer screening data, Wellcome Trust Sanger Institute”
pIC50: −log10 of the molar value.

Columns and labels:
D-542MG = assay: cells; type: functional, cell-based; conditions: Homo sapiens
Description: SANGER: Inhibition of human D-542MG cell growth in a cell viability assay.

TUR = assay: cells; type: functional, cell-based; conditions: Homo sapiens;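 note: growth inhibition of human TUR cells, read out with a cell viability assay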
Description: SANGER: Inhibition of human TUR cell growth in a cell viability assay.

CCF-STTG1 = assay: cells; type: functional, cell-based; conditions: Homo sapiens;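 note: growth inhibition of human CCF-STTG1 cells, determined with a cell viability read-out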
Description: SANGER: Inhibition of human CCF-STTG1 cell growth in a cell viability assay.

NCI-H2087 = assay: cells; type: functional, cell-based; conditions: Homo sapiens;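 note: growth inhibition determined with a cell viability readout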
Description: SANGER: Inhibition of human NCI-H2087 cell growth in a cell viability assay.

OE33 = assay: cells; type: functional, cell-based; conditions: Homo sapiens;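 note: growth inhibition of human OE33 cells, measured by a cell viability assay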
Description: SANGER: Inhibition of human OE33 cell growth in a cell viability assay.

WSU-NHL = assay: cells; type: functional, cell-based; conditions: Homo sapiens;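 note: growth inhibition of human WSU-NHL cells, read out with a cell viability assay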
Description: SANGER: Inhibition of human WSU-NHL cell growth in a cell viability assay.

LoVo = assay: cells; type: functional, cell-based; conditions: Homo sapiens;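 note: growth inhibition of human LoVo cells, read out with a cell viability assay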
Description: SANGER: Inhibition of human LoVo cell growth in a cell viability assay.

NCI-H1693 = assay: cells; type: functional, cell-based; conditions: Homo sapiens;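 note: growth inhibition of the human cell line, read out with a cell viability assay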
Description: SANGER: Inhibition of human NCI-H1693 cell growth in a cell viability assay.

COR-L279 = assay: SANGER: Inhibition of human COR-L279 cell growth in a cell viability assay.; type: functional, cell-based
SJRH30 = assay: cells; type: functional, cell-based; conditions: Homo sapiens;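 note: growth inhibition of human SJRH30 cells, read out with a cell viability assay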
Description: SANGER: Inhibition of human SJRH30 cell growth in a cell viability assay.

RPMI-6666 = assay: cells; type: functional, cell-based; conditions: Homo sapiens
Description: SANGER: Inhibition of human RPMI-6666 cell growth in a cell viability assay.

MKN-1 = assay: cells; type: functional, cell-based; conditions: Homo sapiens;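 note: growth inhibition of human MKN1 cells, read out by a cell viability measurement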
Description: SANGER: Inhibition of human MKN1 cell growth in a cell viability assay.

COLO-741 = assay: cells; type: functional, cell-based; conditions: Homo sapiens
Description: SANGER: Inhibition of human COLO-741 cell growth in a cell viability assay.

UACC-812 = assay: cells; type: functional, cell-based; conditions: Homo sapiens
Description: SANGER: Inhibition of human UACC-812 cell growth in a cell viability assay.

769-P = assay: cells; type: functional, cell-based; conditions: Homo sapiens
Description: SANGER: Inhibition of human 769-P cell growth in a cell viability assay.

D-336MG = assay: cells; type: functional, cell-based; conditions: Homo sapiens
Description: SANGER: Inhibition of human D-336MG cell growth in a cell viability assay.

A-427 = assay: cells; type: functional, cell-based; conditions: Homo sapiens;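 note: growth inhibition of human A-427 cells, read out by a cell viability assay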
Description: SANGER: Inhibition of human A427 cell growth in a cell viability assay.

CAKI-1 = assay: cells; type: functional, cell-based; conditions: Homo sapiens;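 note: growth inhibition of CAKI-1 cells, measured by a cell viability assay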
Description: SANGER: Inhibition of human CAKI-1 cell growth in a cell viability assay.

G-402 = assay: cells; type: functional, cell-based; conditions: Homo sapiens
Description: SANGER: Inhibition of human G-402 cell growth in a cell viability assay.

CAL-27 = assay: cells; type: functional, cell-based; conditions: Homo sapiens;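 note: Viability-based readout, IC50 reflecting inhibition of CAL-27 cell growth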
Description: SANGER: Inhibition of human CAL-27 cell growth in a cell viability assay.

HuCCT-1 = assay: cells; type: functional, cell-based, HuCCT1; conditions: Homo sapiens;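 note: growth inhibition of HuCCT-1 cells, read out by a cell viability assay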
Description: SANGER: Inhibition of human HuCCT1 cell growth in a cell viability assay.

ST486 = assay: SANGER: Inhibition of human ST486 cell growth in a cell viability assay.; type: functional, cell-based
D-247MG = assay: cells; type: functional, cell-based; conditions: Homo sapiens
Description: SANGER: Inhibition of human D-247MG cell growth in a cell viability assay.

CAL-120 = assay: cells; type: functional, cell-based; conditions: Homo sapiens;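 note: cell growth inhibition, read out as cell viability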
Description: SANGER: Inhibition of human CAL-120 cell growth in a cell viability assay.

DMS-53 = assay: cells; type: functional, cell-based; conditions: Homo sapiens;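 note: cell viability assay measuring growth inhibition of human DMS-53 cells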
Description: SANGER: Inhibition of human DMS-53 cell growth in a cell viability assay.

CAL-85-1 = assay: cells; type: functional, cell-based; conditions: Homo sapiens;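 note: growth inhibition of human CAL-85-1 cells, read out with a cell viability assay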
Description: SANGER: Inhibition of human CAL-85-1 cell growth in a cell viability assay.

Calu-1 = assay: SANGER: Inhibition of human Calu-1 cell growth in a cell viability assay.; type: functional, cell-based
NCI-H2452 = assay: cells; type: functional, cell-based; conditions: Homo sapiens;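 note: growth inhibition of NCI-H2452 cells, read out with a cell viability assay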
Description: SANGER: Inhibition of human NCI-H2452 cell growth in a cell viability assay.

LB647-SCLC = assay: cells; type: functional, cell-based; conditions: Homo sapiens;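 note: cell growth inhibition, read out by a viability assay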
Description: SANGER: Inhibition of human LB647-SCLC cell growth in a cell viability assay.

CPC-N = assay: cells; type: functional, cell-based; conditions: Homo sapiens;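 note: growth inhibition of CPC-N cells, with a cell viability assay as the readout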
Description: SANGER: Inhibition of human CPC-N cell growth in a cell viability assay.

Capan-2 = assay: cells; type: functional, cell-based; conditions: Homo sapiens;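 note: Capan-2 cell growth inhibition, read out with a viability assay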
Description: SANGER: Inhibition of human Capan-2 cell growth in a cell viability assay.

COLO-680N = assay: cells; type: functional, cell-based; conditions: Homo sapiens;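 note: cell viability assay used to measure inhibition of COLO-680N cell growth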
Description: SANGER: Inhibition of human COLO-680N cell growth in a cell viability assay.

GP5d = assay: cells; type: functional, cell-based; conditions: Homo sapiens;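 note: growth inhibition of human GP5d cells, read out with a cell viability assay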
Description: SANGER: Inhibition of human GP5d cell growth in a cell viability assay.

BHY = assay: cells; type: functional, cell-based; conditions: Homo sapiens;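 note: cell growth inhibition read out by a viability assay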
Description: SANGER: Inhibition of human BHY cell growth in a cell viability assay.

SNU-449 = assay: cells; type: functional, cell-based; conditions: Homo sapiens
Description: SANGER: Inhibition of human SNU-449 cell growth in a cell viability assay.

MDA-MB-134-VI = assay: cells; type: functional, cell-based; conditions: Homo sapiens
Description: SANGER: Inhibition of human MDA-MB-134-VI cell growth in a cell viability assay.

NCI-H889 = assay: cells; type: functional, cell-based; conditions: Homo sapiens;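 note: cell growth inhibition of the cell line, read out with a viability assay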
Description: SANGER: Inhibition of human NCI-H889 cell growth in a cell viability assay.

KOSC-2 = assay: cells; type: functional, cell-based; conditions: Homo sapiens;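 note: growth inhibition of KOSC-2 cells, read out by a cell viability assay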
Description: SANGER: Inhibition of human KOSC-2 cell growth in a cell viability assay.

NCI-H716 = assay: cells; type: functional, cell-based; conditions: Homo sapiens;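 note: growth inhibition of human NCI-H716 cells, measured by a cell viability assay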
Description: SANGER: Inhibition of human NCI-H716 cell growth in a cell viability assay.

OVCAR-8 = assay: cells; type: functional, cell-based; conditions: Homo sapiens;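 note: growth inhibition of human OVCAR-8 cells, read out by a cell viability assay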
Description: SANGER: Inhibition of human OVCAR-8 cell growth in a cell viability assay.

Huh-7 = assay: cells; type: functional, cell-based; conditions: Homo sapiens;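 note: HuH-7 cell growth inhibition, read out with a cell viability assay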
Description: SANGER: Inhibition of human HuH-7 cell growth in a cell viability assay.

MFE-296 = assay: SANGER: Inhibition of human MFE-296 cell growth in a cell viability assay.; type: functional, cell-based
HCC1569 = assay: cells; type: functional, cell-based; conditions: Homo sapiens;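 note: growth inhibition of human HCC1569 cells, read out with a cell viability assay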
Description: SANGER: Inhibition of human HCC1569 cell growth in a cell viability assay.

NCI-H1694 = assay: cells; type: functional, cell-based; conditions: Homo sapiens;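 note: cell viability assay measuring inhibition of growth in human NCI-H1694 cells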
Description: SANGER: Inhibition of human NCI-H1694 cell growth in a cell viability assay.

CAL-33 = assay: cells; type: functional, cell-based; conditions: Homo sapiens;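 note: growth inhibition of CAL-33 cells, read out with a cell viability assay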
Description: SANGER: Inhibition of human CAL-33 cell growth in a cell viability assay.

PANC-03-27 = assay: cells; type: functional, cell-based; conditions: Homo sapiens
Description: SANGER: Inhibition of human PANC-03-27 cell growth in a cell viability assay.

NCI-H2347 = assay: cells; type: functional, cell-based; conditions: Homo sapiens;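 note: growth inhibition of the cell line, read out with a cell viability assay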
Description: SANGER: Inhibition of human NCI-H2347 cell growth in a cell viability assay.

PFSK-1 = assay: cells; type: functional, cell-based; conditions: Homo sapiens;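 note: cell viability assay measuring how strongly compounds suppress growth of human PFSK-1 cells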
Description: SANGER: Inhibition of human PFSK-1 cell growth in a cell viability assay.

TCC-SUP = assay: cells; type: functional, cell-based; conditions: Homo sapiens;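 note: growth inhibition of TCC-SUP cells, read out with a cell viability assay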
Description: SANGER: Inhibition of human TCCSUP cell growth in a cell viability assay.

HCC1599 = assay: cells; type: functional, cell-based; conditions: Homo sapiens;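 note: growth inhibition of HCC1599 cells, read out in a cell viability assay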
Description: SANGER: Inhibition of human HCC1599 cell growth in a cell viability assay.

NB1 = assay: cells; type: functional, cell-based; conditions: Homo sapiens;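 note: reduction of NB1 cell proliferation, read out with a viability assay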
Description: SANGER: Inhibition of human NB1 cell growth in a cell viability assay.

UMUC3 = assay: cells; type: functional, cell-based; conditions: Homo sapiens;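 note: growth inhibition of human UM-UC-3 cells, read out with a cell viability assay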
Description: SANGER: Inhibition of human UM-UC-3 cell growth in a cell viability assay.

CAL-51 = assay: cells; type: functional, cell-based; conditions: Homo sapiens;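 note: human CAL-51 cell line, growth inhibition read out via a cell viability assay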
Description: SANGER: Inhibition of human CAL-51 cell growth in a cell viability assay.

KARPAS-422 = assay: cells; type: functional, cell-based; conditions: Homo sapiens
Description: SANGER: Inhibition of human KARPAS-422 cell growth in a cell viability assay.

SW13 = assay: cells; type: functional, cell-based; conditions: Homo sapiens;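 note: IC50 is inhibition of SW13 cell growth, read out with a cell viability assay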
Description: SANGER: Inhibition of human SW13 cell growth in a cell viability assay.

GDM-1 = assay: cells; type: functional, cell-based; conditions: Homo sapiens;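 note: cell viability readout used to measure growth inhibition of human GDM-1 cells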
Description: SANGER: Inhibition of human GDM-1 cell growth in a cell viability assay.

KYSE-140 = assay: cells; type: functional, cell-based; conditions: Homo sapiens;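 note: cell viability assay measuring growth inhibition in human KYSE-140 cells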
Description: SANGER: Inhibition of human KYSE-140 cell growth in a cell viability assay.

D-392MG = assay: cells; type: functional, cell-based; conditions: Homo sapiens
SW1088 = assay: cells; type: functional, cell-based; conditions: Homo sapiens;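 note: growth inhibition of human SW1088 cells, read out by a cell viability assay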
Description: SANGER: Inhibition of human SW1088 cell growth in a cell viability assay.

COLO-679 = assay: cells; type: functional, cell-based; conditions: Homo sapiens
Description: SANGER: Inhibition of human COLO-679 cell growth in a cell viability assay.

SK-N-AS = assay: cells; type: functional, cell-based; conditions: Homo sapiens;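 note: growth inhibition of human SK-N-AS cells, measured with a cell viability assay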
Description: SANGER: Inhibition of human SK-N-AS cell growth in a cell viability assay.

NCI-H1703 = assay: cells; type: functional, cell-based; conditions: Homo sapiens;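 note: growth inhibition of NCI-H1703 cells, read out via a cell viability assay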
Description: SANGER: Inhibition of human NCI-H1703 cell growth in a cell viability assay.

SN12C = assay: cells; type: functional, cell-based; conditions: Homo sapiens;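 note: growth inhibition of human SN12C cells, measured by a cell viability assay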
Description: SANGER: Inhibition of human SN12C cell growth in a cell viability assay.

CC(C)=CC[C@@H](O)C1=CC(=O)c2c(O)ccc(O)c2C1=O [SHIKONIN]
pIC50 (D-542MG): 6.24 | pIC50 (TUR): 6.33 | pIC50 (CCF-STTG1): 6.11 | pIC50 (NCI-H2087): 6.36 | pIC50 (OE33): 5.74 | pIC50 (WSU-NHL): 6.58 | pIC50 (LoVo): 5.87 | pIC50 (NCI-H1693): < 4.80 | pIC50 (COR-L279): < 4.80 | pIC50 (SJRH30): 6.43 | pIC50 (RPMI-6666): 6.23 | pIC50 (MKN-1): 6.63 | pIC50 (COLO-741): 5.57 | pIC50 (UACC-812): 5.29 | pIC50 (769-P): 6.16 | pIC50 (D-336MG): 5.76 | pIC50 (A-427): 7.74 | pIC50 (CAKI-1): 6.05 | pIC50 (G-402): 6.05 | pIC50 (CAL-27): < 4.80 | pIC50 (HuCCT-1): 6.32 | pIC50 (ST486): > 7.20 | pIC50 (D-247MG): 5.78 | pIC50 (CAL-120): 5.87 | pIC50 (DMS-53): < 4.80 | pIC50 (CAL-85-1): 6.79 | pIC50 (Calu-1): 5.91 | pIC50 (NCI-H2452): < 4.80 | pIC50 (LB647-SCLC): 6.63 | pIC50 (CPC-N): < 4.80 | pIC50 (Capan-2): 6.00 | pIC50 (COLO-680N): 6.23 | pIC50 (GP5d): 5.87 | pIC50 (BHY): 6.25 | pIC50 (SNU-449): 6.09 | pIC50 (MDA-MB-134-VI): 6.15 | pIC50 (NCI-H889): < 4.80 | pIC50 (KOSC-2): 5.83 | pIC50 (NCI-H716): < 4.80 | pIC50 (OVCAR-8): 6.34 | pIC50 (Huh-7): 5.71 | pIC50 (MFE-296): 6.18 | pIC50 (HCC1569): 6.09 | pIC50 (NCI-H1694): 6.08 | pIC50 (CAL-33): 5.70 | pIC50 (PANC-03-27): 6.78 | pIC50 (NCI-H2347): 6.01 | pIC50 (PFSK-1): < 4.80 | pIC50 (TCC-SUP): 6.26 | pIC50 (HCC1599): 6.41 | pIC50 (NB1): 5.99 | pIC50 (UMUC3): 6.01 | pIC50 (CAL-51): 7.68 | pIC50 (KARPAS-422): < 4.80 | pIC50 (SW13): 5.85 | pIC50 (GDM-1): 5.57 | pIC50 (KYSE-140): 6.43 | pIC50 (D-392MG): 6.04 | pIC50 (SW1088): 6.16 | pIC50 (COLO-679): 6.74 | pIC50 (SK-N-AS): 5.75 | pIC50 (NCI-H1703): 5.64 | pIC50 (SN12C): 5.75

CCNC(=O)c1noc(-c2cc(C(C)C)c(O)cc2O)c1-c1ccc(CN2CCOCC2)cc1 [LUMINESPIB]
pIC50 (D-542MG): 6.85 | pIC50 (TUR): 7.11 | pIC50 (CCF-STTG1): 8.53 | pIC50 (NCI-H2087): 7.48 | pIC50 (OE33): 7.37 | pIC50 (WSU-NHL): 7.13 | pIC50 (LoVo): 7.41 | pIC50 (NCI-H1693): 7.44 | pIC50 (COR-L279): 6.80 | pIC50 (SJRH30): 7.02 | pIC50 (RPMI-6666): 8.07 | pIC50 (MKN-1): 7.31 | pIC50 (COLO-741): 7.26 | pIC50 (UACC-812): < 6.59 | pIC50 (769-P): 7.97 | pIC50 (A-427): 7.89 | pIC50 (CAKI-1): 6.60 | pIC50 (G-402): 7.44 | pIC50 (CAL-27): 7.09 | pIC50 (HuCCT-1): 7.53 | pIC50 (ST486): 7.26 | pIC50 (CAL-120): 7.37 | pIC50 (DMS-53): 6.91 | pIC50 (CAL-85-1): 7.92 | pIC50 (Calu-1): 7.13 | pIC50 (NCI-H2452): < 6.59 | pIC50 (LB647-SCLC): 6.62 | pIC50 (CPC-N): < 6.59 | pIC50 (Capan-2): 8.20 | pIC50 (COLO-680N): 7.36 | pIC50 (GP5d): 7.56 | pIC50 (BHY): 7.72 | pIC50 (SNU-449): 7.69 | pIC50 (MDA-MB-134-VI): 6.76 | pIC50 (NCI-H889): < 6.59 | pIC50 (KOSC-2): 7.39 | pIC50 (NCI-H716): < 6.59 | pIC50 (OVCAR-8): 7.48 | pIC50 (Huh-7): 7.15 | pIC50 (MFE-296): 7.63 | pIC50 (HCC1569): 7.44 | pIC50 (NCI-H1694): < 6.59 | pIC50 (CAL-33): 7.36 | pIC50 (PANC-03-27): 7.93 | pIC50 (NCI-H2347): 7.10 | pIC50 (PFSK-1): 6.99 | pIC50 (TCC-SUP): < 6.59 | pIC50 (HCC1599): 7.02 | pIC50 (NB1): 6.84 | pIC50 (UMUC3): 7.31 | pIC50 (CAL-51): 8.49 | pIC50 (KARPAS-422): 6.85 | pIC50 (SW13): 7.34 | pIC50 (GDM-1): 8.08 | pIC50 (KYSE-140): 7.69 | pIC50 (D-392MG): 7.42 | pIC50 (SW1088): < 6.59 | pIC50 (COLO-679): 7.51 | pIC50 (SK-N-AS): < 6.59 | pIC50 (NCI-H1703): 7.21 | pIC50 (SN12C): 6.61
